Converted amounts (≈) assume the structure as drawn. “Also recorded” adds a separate entry of the source. Read-outs that look alike come from different tables or passages of the source.
Legend:
[1] = test system: Leishmania braziliensis promastigotes (MHOM/BR/75/M2903 strain); assay: Growth inhibition of Leishmania braziliensis promastigotes, MTT method; format: cell-based; details: 72 h, read-out: IC50 on L. braziliensis promastigotes
Procedure: Leishmania braziliensis promastigotes (MHOM/BR/75/M2903 strain) were grown in liver infusion tryptose medium LIT, which was prepared as follows: 5 g/L liver infusion (Sigma 2023-072K1066), 5 g/L tryptose (Britania), 2 g/L glucose (Sigma), 68 mM NaCl, 5.4 mM KCl, 22 mM HPO4Na2, supplemented with 20 mg/L hemin (Sigma) and 10% (vol/vol) fetal calf serum (FCS) (Internegocios). Culture maintenance was performed by weekly passages at 26°C.
The growth inhibition of Leishmania braziliensis promastigotes was evaluated by the MTT method. Parasites (5x10^6) were settled at a final volume of 150 μL in a flat-bottom 96-well microplate and cultured at 37°C in a 5% CO2 atmosphere in the absence or presence of increasing concentrations of the pure compounds. After 72 h, 3-(4,5- dimethylthiazol-2-yl)-2,5-diphenyltetrazolium bromide (MTT) was added at a final concentration of 1.5 mg/mL. Plates were incubated for 2 h at 37°C. The purple formazan crystals formed were completely dissolved by adding 150 μL of ethanol and the absorbance was read at 595 nm in a microplate reader. The inhibition percentage was calculated as {100 − [(DO595nm of treated parasites/ DO595nm of untreated parasites) × 100]}. Compounds were tested at 0–50 μg/mL. Amphotericin B was used as positive control.

[2] = test system: T. cruzi (RA strain); assay: Animal model of T. cruzi infection (acute, lethal dose); format: in vivo, Balb/c mice
Procedure: Inbred male Balb/c mice were nursed at the Departamento de Microbiología, Facultad de Medicina, Universidad de Buenos Aires. Groups of six Balb/c male mice (6 to 8 weeks old) were infected with 1000 bloodstream T. cruzi trypomastigotes by the intraperitoneal route. Five days after infection, the presence of circulating parasites was confirmed by the microhematocrit method (Sülsen et al., 2013). Mice were treated daily with compound 3 or benznidazole (1 mg/kg of body weight/day) for five consecutive days (days 4 to 8 post-infection) by the intraperitoneal route. Drugs were resuspended in DMSO and then adjust to concentration in 0.1 M phosphate buffered saline (PBS, pH 7.2); this vehicle was also employed as a negative control. Levels of parasitemia were monitored every 2 days in 5 μL of blood diluted 1:5 in lysis buffer (0.75% NH4Cl, 0.2% Tris, pH 7.2) by counting parasites in a Neubauer chamber. The number of animal deaths was recorded daily.
The weight of each animal was evaluated during the acute phase of infection. Results were expressed as the ratio between the weight on each day and the weight registered the day of the infection multiplied by 100.
Parasitemia and weight loss were analyzed using a non parametric test: Mann-Whitney test. The survival curves were analyzed with a log rank test.

[3] = test system: T. cruzi bloodstream trypomastigotes; assay: Trypanocidal effect on bloodstream trypomastigotes, live parasite count in Neubauer chamber; format: cell-based; details: Trypanosoma cruzi; 24 h, remaining live parasites counted
Procedure: (§1) Trypanosoma cruzi epimastigotes (RA strain) were grown in a biphasic medium. Cultures were routinely maintained by weekly passages at 28°C. T. cruzi bloodstream trypomastigotes (RA strain) and the recombinant Tulahuen strain expressing β-galactosidase (Tul-β-Gal) were obtained from infected CF1 mice by cardiac puncture at the peak of parasitemia on day 15 post-infection. Trypomastigotes were routinely maintained by infecting 21-day-old CF1 mice.
The trypanocidal effect of the purified compounds was also tested on bloodstream trypomastigotes. Briefly, mouse blood containing trypomastigotes was diluted in complete RPMI -1640 Medium (Sigma-Aldrich R6504- Batch 029K83102) with 10% (vol/vol) fetal calf serum (FCS) (Internegocios) to adjust the parasite concentration to 3 × 10^5/mL. Parasites were seeded in duplicate in a 96-well microplate in the presence of each compound (0–50 μg/mL) or controls and incubated at 4 °C for 24 h. The number of remaining living parasites in each sample was determined in 5 μL of cell suspension diluted 1/5 in lysis buffer (0.75% NH4Cl, 0.2% Tris, pH 7.2) and counted in a Neubauer chamber. Benznidazole was used as positive control.

[4] = test system: T. cruzi amastigotes; assay: Inhibition of intracellular amastigotes, β-galactosidase transfected parasites in Raw 264.7 cells (CPRG); format: cell-based; details: Trypanosoma cruzi
Procedure: as §1
The effect of each compound on intracellular forms of T. cruzi was assayed using β-galactosidase transfected parasites. Briefly, 96-well plates were seeded with Raw 264.7 cells at 5x10^3 per well in […] of culture medium and incubated for 24 h at 37 °C in a 5% CO2 atmosphere. Cells were washed and infected with transfected blood trypomastigotes expressing β-galactosidase at a parasite/cell ratio of 10:1. After 12 h of co- culture, plates were washed twice with PBS to remove unbound parasites and each pure compound was added at different concentrations (0.001–50 μg/mL) in 150 μL of fresh complete RPMI medium without phenol red (Gibco, Rockville, MD). Controls included infected untreated cells (100% infection control) and uninfected cells (0% infection control). The assay was developed 5 days later by the addition of chlorophenol red-β-D-galactopyranoside (CPRG) (100 mM) and 1% Nonidet P40. Plates were then incubated for 4–6 h at 37 °C and the absorbance was measured at 595 nm in a microplate reader (Bio-Rad Laboratories, Hercules, CA). The percentage inhibition was calculated as 100–{[(absorbance of treated infected cells)/(absorbance of untreated infected cells) x 100} and the IC50 value was estimated. Benznidazole was used as positive control.

[5] = test system: T. cruzi epimastigotes (RA strain); assay: T. cruzi epimastigotes growth inhibition, [3H] thymidine uptake assay; format: cell-based, Trypanosoma cruzi; details: for IC50: Trypanosoma cruzi, read-out: IC50 on T. cruzi epimastigotes
Procedure: as §1
The evaluation of T. cruzi epimastigotes growth inhibition was performed by the [^3H] thymidine uptake assay. Briefly, exponentially growing epimastigotes were adjusted to a cell density of 1.5 × 10^6 parasites/mL in fresh medium. Parasites were allowed to grow for 72 h at 28°C in medium with or without different concentrations of each compound (0–5 μg/mL) in triplicate. Percent of inhibition was calculated as {100 − [(cpm of treated parasites/ cpm of untreated parasites) × 100]}. The compound concentration at which the parasite growth was inhibited by 50% (IC50) was determined after 72 h. Benznidazole was used as positive control.

[6] = test system: IL-12; assay: Cytokine production by macrophages, IL-12 sandwich ELISA; format: cell-based; details: RAW 264.7 macrophages, 24 h
Procedure: […] After 24 h, supernatants were collected and stored at -80 °C until cytokine analysis. IL-12 and TNF-α levels were determined by sandwich ELISA (BD Pharmingen, and R&D System, Minneapolis, MN, respectively) according to manufacturer’s instructions. Supplied standards were used to generate a standard curve.

[7] = test system: human monocyte leukemia THP1 cells; assay: Host cell toxicity, trypan blue exclusion method; format: cell-based; details: 24 h
Procedure: (§2) The human monocyte leukemia THP1 (ATCC TIB202) cell line were obtained from the vendor. Cells were thawed, expanded and settled at a concentration 5x10^5 in a final volume of 150 μL in a flat-bottom 96-well microplate and cultured at 37°C in a 5% CO2 atmosphere in the absence or presence of increasing concentrations of the pure compounds. After 24 h, the cell viability was determined by the trypan blue exclusion method in the absence and presence of increasing concentrations of the compounds [26]. The 50% cytotoxic concentration (CC50) and the selectivity index (SI = CC50/IC50) were determined for each compound for T. cruzi trypomastigotes and amastigotes.

[8] = Host cell toxicity, trypan blue exclusion method; format: cell-based, human; details: human
Procedure: as §2

[9] = test system: TNF-α; assay: Cytokine production by macrophages, TNF-α sandwich ELISA; format: cell-based; details: RAW 264.7 macrophages, 25 μg/mL, 24 h, p<0.01
Procedure: RAW 264.7 (ATCC TIB71) macrophage cell line were obtained from ATCC and cultured (1×10^5) in duplicate in 24-well plates in the presence of 2.5 or 25 μg/mL of Compound 3, LPS (10 μg/mL) plus INF-γ (0.30 μg/mL) (positive control), or medium alone (negative control). After 24 h, supernatants were collected and stored at -80 °C until cytokine analysis. IL-12 and TNF-α levels were determined by sandwich ELISA (BD Pharmingen, and R&D System, Minneapolis, MN, respectively) according to manufacturer’s instructions. Supplied standards were used to generate a standard curve.

[10] = infected Balb/c mice, 1 mg/kg/day i.p., days 4 to 8 post-infection
[11] = RAW264.7, β-galactosidase expressing T. cruzi in mammalian cells, read-out: IC50 on T. cruzi amastigotes
[12] = 72 h, 28°C, [3H] thymidine uptake
[13] = THP1 (ATCC TIB202) monocyte leukemia cells

| SMILES | IC50 ([1]; MTT) | reduction of area under the parasitemia curve with respect to controls [2, 10] | IC50 [3] | IC50 [4, 11] | IC50 [5, 12] | CC50 [7] | CC50 at 24 h [8, 13] | other results |
| --- | --- | --- | --- | --- | --- | --- | --- | --- |
| C[C@@H]1[C@H](O)[C@@H](C)/C=C/C=C/C=C/C=C/C=C/C=C/C=C/[C@H](O[C@@H]2O[C@H](C)[C@@H](O)[C@H](N)[C@@H]2O)C[C@@H]2O[C@](O)(C[C@@H](O)C[C@@H](O)[C@H](O)CC[C@@H](O)C[C@@H](O)CC(=O)O[C@H]1C)C[C@H](O)[C@H]2C(=O)O [amphotericin B, reference compound] | 0.26 µg/mL (≈ 0.281 µM) |  |  |  |  |  |  |  |
| O=C(Cn1ccnc1[N+](=O)[O-])NCc1ccccc1 [benznidazole, reference compound] |  | 2.3 fold | 10.4 µg/mL (≈ 40 µM) | 1.1 µg/mL (≈ 4.23 µM) | 1.7 µg/mL (≈ 6.53 µM) |  |  |  |
| C=C1C(=O)OC2CC3(C)OC3CCC3=CC(OC3=O)C12 (centres unmarked) [deoxymikanolide] | 11.5 µg/mL (≈ 41.6 µM) | 1.5 fold | 1.5 µg/mL (≈ 5.43 µM) | 6.3 µg/mL (≈ 22.8 µM) | 0.08 µg/mL (≈ 0.29 µM) | 79.4 µg/mL (≈ 287 µM) | 79.4 µg/mL (≈ 287 µM) | weight loss during the acute phase of infection compared to control mice ([2]; 20 days post infection, p = 0.028): able to reduce the weight loss; blood parasitemia compared to controls ([2]; infected Balb/c mice, 1 mg/kg/day i.p., days 4 to 8 post-infection, 1 mg/kg/day): decrease the parasitemia; also recorded: lower blood parasitemia; mice surviving the acute phase of infection ([2]; lethal T. cruzi infection, controls 100% mortality by day 22, p = 0.02 Log-rank): 70%; IL-12 production ([6]; 2 μg/mL): slight increase; IL-12 production ([6]; 25 μg/mL): higher production rate; secretion of TNF-α compared with negative control [9]: significant increase |
| C[C@H]1C(=O)O[C@H]2C[C@]3(C)O[C@H]3[C@@H]3O[C@@H]3C3=C[C@@H](OC3=O)[C@@H]21 [dihydromikanolide] | 57.1 µg/mL (≈ 195 µM) |  | 0.3 µg/mL (≈ 1.03 µM) | 8.5 µg/mL (≈ 29.1 µM) | 2.5 µg/mL (≈ 8.55 µM) | 13.0 µg/mL (≈ 44.5 µM) | 13 µg/mL (≈ 44.4 µM) |  |
| C=C1C(=O)OC2CC3(C)OC3C3OC3C3=CC(OC3=O)C12 (centres unmarked) [mikanolide] |  |  | 2.1 µg/mL (≈ 7.23 µM) |  |  |  |  | CC50 at 24 h ([8]; THP1 cells): 22.3 µg/mL (≈ 76.8 µM); IC50 [1]: 5.1 µg/mL (≈ 17.6 µM); IC50 ([4]; RAW264.7, read-out: IC50 on T. cruzi amastigotes): 4.5 µg/mL (≈ 15.5 µM); IC50 [5]: 0.7 µg/mL (≈ 2.41 µM) |
| C=C1C(=O)OC2CC3(C)OC3CC(OC(C)=O)C3=CC(OC3=O)C12 (centres unmarked) [scandenolide] | 252 µg/mL (≈ 754 µM) |  | 68.4 µg/mL (≈ 205 µM) | 60.6 µg/mL (≈ 181 µM) | 137 µg/mL (≈ 410 µM) |  | 864 µg/mL (≈ 2580 µM) | activity on Trypanosoma cruzi ([5]; in words, all T. cruzi stages (abstract)): not active |

— PMC5629014, “Assessment of sesquiterpene lactones isolated from Mikania plants species for their potential efficacy against Trypanosoma cruzi and Leishmania sp” (PLoS Neglected Tropical Diseases, 2017)
